In PubChem BioAssay (NCI):
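Protocol summary: plate cells (96-well), add compound at 5 concentrations, incubate 48 h, interpolate endpoints linearly. GI50 = concentration required for 50% inhibition of growth. TGI denotes the concentration required for complete inhibition of growth.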

Assays:
Experiment in all cases: inhibition of tumour cell growth, NCI panel, 48 h
786-0 renal = tested on: 786-0 renal
A498 renal = tested on: A498 renal
A549 NSCLC = tested on: A549 NSCLC
ACHN renal = tested on: ACHN renal
BT-549 breast = tested on: BT-549 breast
CAKI-1 renal = tested on: CAKI-1 renal
CCRF-CEM leukemia = tested on: CCRF-CEM leukemia
COLO 205 colon = tested on: COLO 205 colon
DU-145 prostate = tested on: DU-145 prostate
EKVX NSCLC = tested on: EKVX NSCLC
HCC-2998 colon = tested on: HCC-2998 colon
HCT-116 colon = tested on: HCT-116 colon
HCT-15 colon = tested on: HCT-15 colon
HL-60(TB) leukemia = tested on: HL-60(TB) leukemia
HOP-62 NSCLC = tested on: HOP-62 NSCLC
HOP-92 NSCLC = tested on: HOP-92 NSCLC
HS 578T breast = tested on: HS 578T breast
IGROV1 ovarian = tested on: IGROV1 ovarian
K-562 leukemia = tested on: K-562 leukemia
KM12 colon = tested on: KM12 colon
LOX IMVI melanoma = tested on: LOX IMVI melanoma
M14 melanoma = tested on: M14 melanoma
MALME-3M melanoma = tested on: MALME-3M melanoma
MCF7 breast = tested on: MCF7 breast
MDA-MB-231 breast = tested on: MDA-MB-231 breast
MDA-MB-435 = tested on: MDA-MB-435
MOLT-4 leukemia = tested on: MOLT-4 leukemia
NCI-H226 lung = tested on: NCI-H226 lung
NCI-H23 lung = tested on: NCI-H23 lung
NCI-H460 lung = tested on: NCI-H460 lung
NCI-H522 lung = tested on: NCI-H522 lung
NCI/ADR-RES ovarian = tested on: NCI/ADR-RES ovarian
OVCAR-3 ovarian = tested on: OVCAR-3 ovarian
OVCAR-4 ovarian = tested on: OVCAR-4 ovarian
OVCAR-5 ovarian = tested on: OVCAR-5 ovarian
OVCAR-8 ovarian = tested on: OVCAR-8 ovarian
PC-3 prostate = tested on: PC-3 prostate
RPMI-8226 leukemia = tested on: RPMI-8226 leukemia
RXF 393 renal = tested on: RXF 393 renal
SF-268 CNS = tested on: SF-268 CNS
SF-295 CNS = tested on: SF-295 CNS
SF-539 CNS = tested on: SF-539 CNS
SK-MEL-2 melanoma = tested on: SK-MEL-2 melanoma
SK-MEL-28 melanoma = tested on: SK-MEL-28 melanoma
SK-MEL-5 melanoma = tested on: SK-MEL-5 melanoma
SK-OV-3 ovarian = tested on: SK-OV-3 ovarian
SN12C renal = tested on: SN12C renal
SNB-19 CNS = tested on: SNB-19 CNS
SNB-75 CNS = tested on: SNB-75 CNS
SR leukemia = tested on: SR leukemia
SW-620 colon = tested on: SW-620 colon
T-47D breast = tested on: T-47D breast
TK-10 renal = tested on: TK-10 renal
UACC-257 melanoma = tested on: UACC-257 melanoma
UACC-62 melanoma = tested on: UACC-62 melanoma
UO-31 renal = tested on: UO-31 renal

Work on `Cc1nn(CNc2ccccc2C(F)(F)F)c(=S)n1/N=C/c1cccc2cccnc12` yielded a GI50 (786-0 renal) of over 100 µM, a TGI (786-0 renal) of over 100 µM and a GI50 (A498 renal) of over 100 µM. It also gave a TGI (A498 renal) of over 100 µM, a GI50 (A549 NSCLC) of over 100 µM and a TGI (A549 NSCLC) of over 100 µM. The GI50 (ACHN renal) was 95.3 µM, the TGI (ACHN renal) was over 100 µM and the GI50 (BT-549 breast) was over 100 µM. The TGI (BT-549 breast) was over 100 µM, the GI50 (CAKI-1 renal) was over 100 µM and the TGI (CAKI-1 renal) was over 100 µM. The GI50 (CCRF-CEM leukemia) was 18.9 µM, the TGI (CCRF-CEM leukemia) was over 100 µM and the GI50 (COLO 205 colon) was over 100 µM. For the same molecule, the TGI (COLO 205 colon) was over 100 µM, the GI50 (DU-145 prostate) was over 100 µM and the TGI (DU-145 prostate) was over 100 µM. For the same molecule, the GI50 (EKVX NSCLC) was over 100 µM, the TGI (EKVX NSCLC) was over 100 µM and the GI50 (HCC-2998 colon) was over 100 µM. For the same molecule, the TGI (HCC-2998 colon) was over 100 µM, the GI50 (HCT-116 colon) was 44.6 µM and the TGI (HCT-116 colon) was over 100 µM. It also gave a GI50 (HCT-15 colon) of 24.3 µM, a TGI (HCT-15 colon) of over 100 µM and a GI50 (HL-60(TB) leukemia) of 40.6 µM. For the same molecule, the TGI (HL-60(TB) leukemia) was over 100 µM, the GI50 (HOP-62 NSCLC) was over 100 µM and the TGI (HOP-62 NSCLC) was over 100 µM. For the same molecule, the GI50 (HOP-92 NSCLC) was 74.7 µM, the TGI (HOP-92 NSCLC) was over 100 µM and the GI50 (HS 578T breast) was over 100 µM. The TGI (HS 578T breast) was over 100 µM, the GI50 (IGROV1 ovarian) was 52.3 µM and the TGI (IGROV1 ovarian) was over 100 µM. For the same molecule, the GI50 (K-562 leukemia) was 35.8 µM, the TGI (K-562 leukemia) was over 100 µM and the GI50 (KM12 colon) was 43.7 µM. It also gave a TGI (KM12 colon) of over 100 µM, a GI50 (LOX IMVI melanoma) of 34.7 µM and a TGI (LOX IMVI melanoma) of over 100 µM. The GI50 (M14 melanoma) was 57.9 µM, the TGI (M14 melanoma) was over 100 µM and the GI50 (MALME-3M melanoma) was over 100 µM. It also gave a TGI (MALME-3M melanoma) of over 100 µM, a GI50 (MCF7 breast) of 54.9 µM and a TGI (MCF7 breast) of over 100 µM. For the same molecule, the GI50 (MDA-MB-231 breast) was 23.4 µM, the TGI (MDA-MB-231 breast) was 91.7 µM and the GI50 (MDA-MB-435) was 22.7 µM. It also gave a TGI (MDA-MB-435) of 55 µM, a GI50 (MOLT-4 leukemia) of 41.6 µM and a TGI (MOLT-4 leukemia) of over 100 µM. The GI50 (NCI-H226 lung) was 56.2 µM, the TGI (NCI-H226 lung) was over 100 µM and the GI50 (NCI-H23 lung) was over 100 µM. The TGI (NCI-H23 lung) was over 100 µM, the GI50 (NCI-H460 lung) was over 100 µM and the TGI (NCI-H460 lung) was over 100 µM. The GI50 (NCI-H522 lung) was over 100 µM, the TGI (NCI-H522 lung) was over 100 µM and the GI50 (NCI/ADR-RES ovarian) was 35.3 µM. The TGI (NCI/ADR-RES ovarian) was over 100 µM, the GI50 (OVCAR-3 ovarian) was over 100 µM and the TGI (OVCAR-3 ovarian) was over 100 µM. For the same molecule, the GI50 (OVCAR-4 ovarian) was 44.3 µM, the TGI (OVCAR-4 ovarian) was over 100 µM and the GI50 (OVCAR-5 ovarian) was over 100 µM. For the same molecule, the TGI (OVCAR-5 ovarian) was over 100 µM, the GI50 (OVCAR-8 ovarian) was over 100 µM and the TGI (OVCAR-8 ovarian) was over 100 µM. The GI50 (PC-3 prostate) was 79.1 µM, the TGI (PC-3 prostate) was over 100 µM and the GI50 (RPMI-8226 leukemia) was 28.8 µM. For the same molecule, the TGI (RPMI-8226 leukemia) was over 100 µM, the GI50 (RXF 393 renal) was over 100 µM and the TGI (RXF 393 renal) was over 100 µM. The GI50 (SF-268 CNS) was 32.5 µM, the TGI (SF-268 CNS) was over 100 µM and the GI50 (SF-295 CNS) was over 100 µM. The TGI (SF-295 CNS) was over 100 µM, the GI50 (SF-539 CNS) was over 100 µM and the TGI (SF-539 CNS) was over 100 µM. For the same molecule, the GI50 (SK-MEL-2 melanoma) was over 100 µM, the TGI (SK-MEL-2 melanoma) was over 100 µM and the GI50 (SK-MEL-28 melanoma) was over 100 µM. For the same molecule, the TGI (SK-MEL-28 melanoma) was over 100 µM, the GI50 (SK-MEL-5 melanoma) was over 100 µM and the TGI (SK-MEL-5 melanoma) was over 100 µM. The GI50 (SK-OV-3 ovarian) was over 100 µM, the TGI (SK-OV-3 ovarian) was over 100 µM and the GI50 (SN12C renal) was 19.9 µM. It also gave a TGI (SN12C renal) of 72.7 µM, a GI50 (SNB-19 CNS) of over 100 µM and a TGI (SNB-19 CNS) of over 100 µM. It also gave a GI50 (SNB-75 CNS) of 27.4 µM, a TGI (SNB-75 CNS) of over 100 µM and a GI50 (SR leukemia) of 20.2 µM. The TGI (SR leukemia) was 67.6 µM, the GI50 (SW-620 colon) was 65.8 µM and the TGI (SW-620 colon) was over 100 µM. The GI50 (T-47D breast) was over 100 µM, the TGI (T-47D breast) was over 100 µM and the GI50 (TK-10 renal) was over 100 µM. For the same molecule, the TGI (TK-10 renal) was over 100 µM, the GI50 (UACC-257 melanoma) was over 100 µM and the TGI (UACC-257 melanoma) was over 100 µM. For the same molecule, the GI50 (UACC-62 melanoma) was 33.8 µM, the TGI (UACC-62 melanoma) was over 100 µM and the GI50 (UO-31 renal) was over 100 µM. The TGI (UO-31 renal) was over 100 µM.
